The test system of this test is STAT3 phosphorylation and STAT3 regulated genes (survivin, cyclin D1). In words: Western immunoblotting of MDA-MB-468 cells (P-STAT3, survivin, cyclin D1). The format is cell-based, human. Particulars: 100 μM overnight, Western blot. The method, then: To assess the ability of lead γ-AA peptides to modulate the expression of STAT3 regulated genes, Western immunoblotting was carried out to determine the effect of γ-AA peptides on the expression levels of survivin and cyclin D1. Briefly, Western blots were prepared using cells that were harvested and lysed for 30 min on ice with occasional vortexing in 150 mM Hepes, pH 7.5, 150 mM NaCl, 1 mM EDTA, 0.5% NP-40, 10% glycerol, 5 mM NaF, 1 mM DTT, 1 mM PMSF, 2 mM Na3VO4, and 5 μg/ml leupeptin. Proteins readings were done using the Bradford protein assay, and equal amounts of protein for each sample were loaded into the wells of SDS-PAGE gels. After separation, proteins were transferred to nitrocellulose and Western blots were performed as previously described (Zhang, et al., A Novel Inhibitor of STAT3 Homodimerization Selectively Suppresses STAT3 Activity and Malignant Transformation. Cancer Research 2013, 73, 1922-1933).
In general terms: A western blot detects proteins with antibodies after separation by electrophoresis.

The values below come from patent US10351596B2, “γ-AA-peptide STAT3/DNA inhibitors and methods of use” (H. Lee Moffitt Cancer Center and Research Institute, Inc., priority 2014, dated 2019).

As for S3I-1757, the “STAT3 phosphorylation (P-STAT3)” value is “blocked STAT3 phosphorylation”.
